Laboratory results reported in patent US11034672B1, “Tyrosine kinase inhibitor compositions, methods of making and methods of use” (Black Diamond Therapeutics, Inc., priority 2018, dated 2021).
pIC50: −log10 of the molar value.

Assays:
Format in all cases: cell-based
EGFR V3 [1] = target: T1, EGFR V3 (Homo sapiens, UniProt P00533, DELINS30-297G); experiment: Activity for inhibiting EGFR (Table A), EGFR V3 (EGFR-Viii); settings: read-out: EGFR V3, potency code (IC50)
T1 construct: expressed in transfected cells; host or cells: BaF3 (murine pro-B), retroviral pMXs-IRES-Blasticidin

HER2 S310F [2] = target: T2, HER2 S310F (Homo sapiens, UniProt P04626, S310F); experiment: BaF3 cell proliferation assay, HER2 S310F (Table B); settings: potency code, 3 days, CellTiterGlo, read-out: HER2 S310F (Activity for Inhibiting HER2)
T2 construct: expressed in transfected cells; host or cells: BaF3 (murine pro-B)

EGFR WT [3] = target: T3, EGFR WT (Homo sapiens, UniProt P00533); experiment: BaF3 cell proliferation assay, EGFR WT (Table A); settings: potency code, 3 days, CellTiterGlo, read-out: EGFR WT (Activity for Inhibiting EGFR)
Protocol: (§1) Retroviral Production: EGFR mutants were subcloned into pMXs-IRES-Blasticidin (RTV-016, Cell Biolabs, San Diego, Calif.). Retroviral expression vector retrovirus was produced by transient transfection of HEK 293T cells with the retroviral EGFR mutant expression vector pMXs-IRES-Blasticidin (RTV-016, Cell Biolabs), pCMV-Gag-Pol vector and pCMV-VSV-G-Envelope vector. Briefly, HEK 293T/17 cells were plated in 100 mm collagen coated plate (354450, Corning Life Sciences, Tewksbury, Mass.) (4×10^5 per plate) and incubated overnight. The next day, retroviral plasmids (3 μg of EGFR mutant, 1.0 μg of pCMV-Gag-Pol and 0.5 μg pCMV-VSV-G) were mixed in 500 μl of Optimem (31985, Life Technologies). The mixture was incubated at room temperature for 5 min and then added to Optimem containing transfection reagent Lipofectamine (11668, Invitrogen) and incubated for 20 minutes. Mixture was then added dropwise to HEK 293T cells. The next day the medium was replaced with fresh culture medium and retrovirus was harvested @ 24 and 48 hrs.
(§2) Generation of EGFR mutant stable cell lines: BaF3 cells (1.5E5 cells) were infected with 1 ml of viral supernatant supplemented with 8 μg/ml polybrene by centrifuging for 30 min at 1000 rpm. Cells were placed in a 37° C. incubator overnight. Cells were then spun for 5 minutes to pellet the cells. Supernatant was removed and cells re-infected a fresh 1 ml of viral supernatant supplemented with 8 μg/ml polybrene by centrifuging for 30 min at 1000 rpm. Cells were placed in 37° C. incubator overnight. […] After 48 hours cells were selected for retroviral infection in 10 μg/ml Blasticidin for one week. Blasticidin resistant populations were washed twice in phosphate buffered saline before plating in media lacking IL-3 to select for IL-3 independent growth.
(§3) EC50 values were determined with the same application.

HER2 YVMA [4] = target: T4, HER2 YVMA (Homo sapiens, UniProt P04626, INS775YVMA); experiment: BaF3 cell proliferation assay, HER2 YVMA (Table B); settings: potency code, 3 days, CellTiterGlo, read-out: HER2 YVMA (Activity for Inhibiting HER2)
T4 construct: expressed in transfected cells; host or cells: BaF3 (murine pro-B)

HER2 S310F [5] = target: T2, HER2 S310F; experiment: Activity for inhibiting HER2 (Table B), HER2 S310F; settings: read-out: HER2 S310F, potency code (IC50)
Protocol: as §3

EGFR WT [6] = target: T3, EGFR WT; experiment: Activity for inhibiting EGFR (Table A), EGFR WT; settings: read-out: EGFR WT, potency code (IC50)
EGFR V3 [7] = target: T1, EGFR V3; experiment: BaF3 cell proliferation assay, EGFR V3 (Table A); settings: potency code, 3 days, CellTiterGlo, read-out: EGFR V3 (Activity for Inhibiting EGFR)
Protocol: as §1, §2, §3

HER2 YVMA [8] = target: T4, HER2 YVMA; experiment: Activity for inhibiting HER2 (Table B), HER2 YVMA; settings: read-out: HER2 YVMA, potency code (IC50)
Protocol: as §3

T4 sequence (P04626 with tags, fused parts or gaps INS775YVMA): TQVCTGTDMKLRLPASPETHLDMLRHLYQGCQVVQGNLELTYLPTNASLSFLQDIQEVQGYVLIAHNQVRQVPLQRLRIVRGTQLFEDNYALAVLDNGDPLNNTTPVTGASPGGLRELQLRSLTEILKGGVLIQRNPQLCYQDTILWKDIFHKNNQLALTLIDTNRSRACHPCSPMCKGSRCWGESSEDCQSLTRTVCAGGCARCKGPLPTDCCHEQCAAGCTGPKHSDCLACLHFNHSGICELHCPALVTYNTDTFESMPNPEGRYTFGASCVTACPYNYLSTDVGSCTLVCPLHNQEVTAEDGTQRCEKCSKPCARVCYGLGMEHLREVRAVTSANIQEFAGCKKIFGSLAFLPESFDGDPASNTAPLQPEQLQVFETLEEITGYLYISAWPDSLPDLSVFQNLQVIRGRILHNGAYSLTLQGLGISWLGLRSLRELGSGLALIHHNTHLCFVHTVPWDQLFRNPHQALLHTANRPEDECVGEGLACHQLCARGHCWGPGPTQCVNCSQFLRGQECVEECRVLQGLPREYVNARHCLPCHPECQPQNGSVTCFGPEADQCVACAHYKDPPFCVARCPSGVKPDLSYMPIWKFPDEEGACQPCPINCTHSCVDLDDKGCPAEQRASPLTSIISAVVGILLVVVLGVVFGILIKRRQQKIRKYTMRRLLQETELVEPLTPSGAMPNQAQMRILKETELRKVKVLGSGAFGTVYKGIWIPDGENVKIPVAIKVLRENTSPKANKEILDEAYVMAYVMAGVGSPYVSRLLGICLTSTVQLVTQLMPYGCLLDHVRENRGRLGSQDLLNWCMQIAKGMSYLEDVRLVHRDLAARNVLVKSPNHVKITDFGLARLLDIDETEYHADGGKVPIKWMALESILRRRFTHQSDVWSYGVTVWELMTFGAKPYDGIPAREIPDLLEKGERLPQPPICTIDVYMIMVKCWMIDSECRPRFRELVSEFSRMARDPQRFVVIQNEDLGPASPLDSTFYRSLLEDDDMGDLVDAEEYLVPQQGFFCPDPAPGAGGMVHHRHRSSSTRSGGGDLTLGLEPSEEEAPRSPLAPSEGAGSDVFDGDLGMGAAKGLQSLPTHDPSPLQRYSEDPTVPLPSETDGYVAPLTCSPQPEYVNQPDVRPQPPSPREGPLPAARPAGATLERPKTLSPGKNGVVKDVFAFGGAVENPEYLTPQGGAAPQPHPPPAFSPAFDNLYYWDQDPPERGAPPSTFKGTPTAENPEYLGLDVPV
T1 sequence (P00533 with tags, fused parts or gaps DELINS30-297G): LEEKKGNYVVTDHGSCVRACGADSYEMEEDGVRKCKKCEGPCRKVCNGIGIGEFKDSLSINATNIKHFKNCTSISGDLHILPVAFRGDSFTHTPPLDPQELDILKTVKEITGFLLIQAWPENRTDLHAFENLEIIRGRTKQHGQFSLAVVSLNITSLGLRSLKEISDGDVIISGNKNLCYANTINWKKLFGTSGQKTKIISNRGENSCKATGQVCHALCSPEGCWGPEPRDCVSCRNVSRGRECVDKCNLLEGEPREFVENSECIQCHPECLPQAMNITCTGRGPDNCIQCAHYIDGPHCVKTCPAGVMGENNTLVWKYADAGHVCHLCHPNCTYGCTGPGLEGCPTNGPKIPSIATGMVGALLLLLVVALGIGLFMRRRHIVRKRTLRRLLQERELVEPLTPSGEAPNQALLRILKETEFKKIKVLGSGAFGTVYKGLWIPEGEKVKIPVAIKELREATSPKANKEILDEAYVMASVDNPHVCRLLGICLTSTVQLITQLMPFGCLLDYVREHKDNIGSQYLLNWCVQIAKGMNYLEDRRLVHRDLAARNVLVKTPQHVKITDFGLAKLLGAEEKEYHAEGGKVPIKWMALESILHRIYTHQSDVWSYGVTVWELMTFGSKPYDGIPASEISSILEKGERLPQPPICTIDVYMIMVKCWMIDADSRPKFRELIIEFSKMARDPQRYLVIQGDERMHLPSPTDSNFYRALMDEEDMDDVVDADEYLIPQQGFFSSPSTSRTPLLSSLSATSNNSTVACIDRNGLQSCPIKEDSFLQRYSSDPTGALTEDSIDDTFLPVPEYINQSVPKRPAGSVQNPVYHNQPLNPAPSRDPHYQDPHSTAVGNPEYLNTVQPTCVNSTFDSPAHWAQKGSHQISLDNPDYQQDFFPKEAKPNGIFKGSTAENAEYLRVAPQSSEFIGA
T3 sequence (P00533 25-1210 N540K): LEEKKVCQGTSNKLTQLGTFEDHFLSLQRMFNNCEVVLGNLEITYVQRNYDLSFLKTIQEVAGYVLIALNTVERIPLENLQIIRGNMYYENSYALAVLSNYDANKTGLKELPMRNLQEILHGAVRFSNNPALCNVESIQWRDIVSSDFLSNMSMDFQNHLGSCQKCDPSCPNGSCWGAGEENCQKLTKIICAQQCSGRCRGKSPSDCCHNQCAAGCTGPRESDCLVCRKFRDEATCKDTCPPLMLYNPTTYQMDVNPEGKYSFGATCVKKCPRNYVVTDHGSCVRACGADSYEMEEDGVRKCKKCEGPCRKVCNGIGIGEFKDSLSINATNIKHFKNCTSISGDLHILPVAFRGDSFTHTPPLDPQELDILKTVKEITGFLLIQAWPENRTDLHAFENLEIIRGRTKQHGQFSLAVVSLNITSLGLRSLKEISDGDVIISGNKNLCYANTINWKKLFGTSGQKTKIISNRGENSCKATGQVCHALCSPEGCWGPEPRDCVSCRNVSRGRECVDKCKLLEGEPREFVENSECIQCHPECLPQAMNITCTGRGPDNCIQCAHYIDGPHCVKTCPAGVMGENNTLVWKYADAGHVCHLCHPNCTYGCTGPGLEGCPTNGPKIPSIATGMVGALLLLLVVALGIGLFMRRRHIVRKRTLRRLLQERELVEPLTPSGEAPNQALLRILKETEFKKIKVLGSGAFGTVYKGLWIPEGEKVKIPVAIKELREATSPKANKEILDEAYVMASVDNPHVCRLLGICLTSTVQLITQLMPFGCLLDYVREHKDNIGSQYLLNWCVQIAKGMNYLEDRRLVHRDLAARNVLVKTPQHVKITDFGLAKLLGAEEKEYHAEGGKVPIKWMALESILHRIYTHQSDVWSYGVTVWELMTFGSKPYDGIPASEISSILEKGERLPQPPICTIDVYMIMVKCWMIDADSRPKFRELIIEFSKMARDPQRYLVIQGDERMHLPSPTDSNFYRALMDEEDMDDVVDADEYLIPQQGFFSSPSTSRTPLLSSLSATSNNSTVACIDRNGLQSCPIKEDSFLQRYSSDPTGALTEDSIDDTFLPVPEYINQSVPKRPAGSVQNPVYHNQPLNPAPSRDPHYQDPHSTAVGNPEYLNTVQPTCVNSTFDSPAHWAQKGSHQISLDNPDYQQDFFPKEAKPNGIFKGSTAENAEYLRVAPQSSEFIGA
T2 sequence (P04626 23-1255 S310F): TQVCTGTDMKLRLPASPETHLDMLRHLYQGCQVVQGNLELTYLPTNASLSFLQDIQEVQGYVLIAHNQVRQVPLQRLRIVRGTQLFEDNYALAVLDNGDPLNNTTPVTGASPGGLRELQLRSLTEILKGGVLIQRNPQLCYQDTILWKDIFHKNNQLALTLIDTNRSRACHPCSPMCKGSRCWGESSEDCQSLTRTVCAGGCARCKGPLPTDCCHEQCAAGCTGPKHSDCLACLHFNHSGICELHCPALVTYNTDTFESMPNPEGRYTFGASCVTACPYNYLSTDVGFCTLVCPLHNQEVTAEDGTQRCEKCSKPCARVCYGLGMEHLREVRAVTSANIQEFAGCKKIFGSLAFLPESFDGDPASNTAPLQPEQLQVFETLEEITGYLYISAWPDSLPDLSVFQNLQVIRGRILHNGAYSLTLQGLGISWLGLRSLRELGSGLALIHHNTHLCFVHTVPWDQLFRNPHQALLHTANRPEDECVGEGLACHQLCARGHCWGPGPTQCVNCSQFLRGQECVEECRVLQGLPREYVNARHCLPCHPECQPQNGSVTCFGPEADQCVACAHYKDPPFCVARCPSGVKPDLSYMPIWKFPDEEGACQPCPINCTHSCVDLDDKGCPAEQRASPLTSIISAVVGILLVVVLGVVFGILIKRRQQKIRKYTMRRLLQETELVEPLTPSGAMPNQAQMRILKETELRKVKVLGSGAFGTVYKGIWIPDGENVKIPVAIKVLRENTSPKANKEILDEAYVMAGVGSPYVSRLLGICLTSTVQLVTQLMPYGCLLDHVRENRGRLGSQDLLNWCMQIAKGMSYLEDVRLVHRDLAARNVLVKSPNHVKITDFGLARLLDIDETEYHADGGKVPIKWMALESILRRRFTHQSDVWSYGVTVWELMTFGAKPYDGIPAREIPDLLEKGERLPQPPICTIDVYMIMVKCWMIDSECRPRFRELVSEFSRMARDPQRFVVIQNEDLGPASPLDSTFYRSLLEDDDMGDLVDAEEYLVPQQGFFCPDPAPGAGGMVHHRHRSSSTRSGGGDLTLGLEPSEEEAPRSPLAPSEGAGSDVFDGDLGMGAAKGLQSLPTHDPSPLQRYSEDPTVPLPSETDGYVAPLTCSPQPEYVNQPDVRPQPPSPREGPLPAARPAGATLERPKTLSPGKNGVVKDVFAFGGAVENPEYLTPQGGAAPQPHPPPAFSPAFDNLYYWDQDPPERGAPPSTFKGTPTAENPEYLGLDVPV

| Compound | pIC50 (EGFR V3 [1]) | pIC50 (HER2 S310F [2]) | pIC50 (EGFR WT [3]) | pIC50 (HER2 YVMA [4]) | pIC50 (HER2 S310F [5]) | pIC50 (EGFR WT [6]) | pIC50 (EGFR V3 [7]) | pIC50 (HER2 YVMA [8]) |
| --- | --- | --- | --- | --- | --- | --- | --- | --- |
| C=CC(=O)Nc1cc2c(Nc3ccc(Oc4ccccc4)c(Cl)c3)ncnc2cc1O[C@@H]1CCN(C)C1 [compound 91, (R)-N-(4-((3-chloro-4-phenoxyphenyl)amino)-7-((1-methylpyrrolidin-3-yl)oxy)quinazolin-6-yl)acrylamide] | 7.00 to 7.30 | 7.30 to 7.52 | 6.00 to 6.30 | 6.52 to 6.70 | 7.30 to 7.52 | 6.00 to 6.30 | 7.00 to 7.30 | 6.52 to 6.70 |
| C=CC(=O)Nc1cc2c(Nc3ccc(OCc4ccccn4)c(Cl)c3)ncnc2cc1N1CC(N(C)C)C1 [compound 93, N-(4-((3-chloro-4-(pyridin-2-ylmethoxy)phenyl)amino)-7-(3-(dimethylamino)azetidin-1-yl)quinazolin-6-yl)acrylamide] | 6.52 to 6.70 | 6.00 to 6.30 | < 6.00 | < 6.00 | 6.00 to 6.30 | < 6.00 | 6.52 to 6.70 | < 6.00 |
| C=CC(=O)Nc1cc2c(Nc3cnc(NCc4ccccn4)c(Cl)c3)ncnc2cc1OCCN1CCOCC1 [compound 97, N-(4-((5-chloro-6-((pyridin-2-ylmethyl)amino)pyridin-3-yl)amino)-7-(2-morpholinoethoxy)quinazolin-6-yl)acrylamide] | 7.00 to 7.30 | 6.52 to 6.70 | 6.00 to 6.30 | 6.00 to 6.30 | 6.52 to 6.70 | 6.00 to 6.30 | 7.00 to 7.30 | 6.00 to 6.30 |
| C=CC(=O)Nc1cc2c(Nc3cc(C)c(OCc4ccccn4)cc3F)ncnc2cc1OCCN1CCOCC1 [compound 100, N-(4-((2-fluoro-5-methyl-4-(pyridin-2-ylmethoxy)phenyl)amino)-7-(2-morpholinoethoxy)quinazolin-6-yl)acrylamide] | 7.30 to 7.52 | 7.00 to 7.30 | 6.30 to 6.52 | 6.30 to 6.52 | 7.00 to 7.30 | 6.30 to 6.52 | 7.30 to 7.52 | 6.30 to 6.52 |
| C=CC(=O)Nc1cc2c(Nc3ccc(OCc4ccccn4)c(Cl)c3)ncnc2cc1OC[C@H]1C[C@@H]2CN(C)C[C@@H]2C1 [compound 103, N-(4-((3-chloro-4-(pyridin-2-ylmethoxy)phenyl)amino)-7-(((3aR,5s,6aS)-2-methyloctahydrocyclopenta[c]pyrrol-5-yl)methoxy)quinazolin-6-yl)acrylamide] | 7.30 to 7.52 | 7.70 to 8.00 | 6.52 to 6.70 | 7.00 to 7.30 | 7.70 to 8.00 | 6.52 to 6.70 | 7.30 to 7.52 | 7.00 to 7.30 |
| C=CC(=O)Nc1cc2c(Nc3ccc(Oc4ccc(C)nc4)c(C)c3)ncnc2cc1C#C[C@@H]1[C@H]2CN(C)C[C@@H]12 [compound 104, N-(7-(((1R,5S,6s)-3-methyl-3-azabicyclo[3.1.0]hexan-6-yl)ethynyl)-4-((3-methyl-4-((6-methylpyridin-3-yl)oxy)phenyl)amino)quinazolin-6-yl)acrylamide] | 7.30 to 7.52 | 7.30 to 7.52 | 7.52 to 7.70 | 7.30 to 7.52 | 7.30 to 7.52 | 7.52 to 7.70 | 7.30 to 7.52 | 7.30 to 7.52 |
| C=CC(=O)Nc1cc2c(Nc3ccc(OCc4ccccn4)c(Cl)c3)ncnc2cc1C#CC1[C@H]2CNC[C@@H]12 (stereo partly drawn) [compound 105, N-(7-((1R,5S,6s)-3-azabicyclo[3.1.0]hexan-6-ylethynyl)-4-((3-chloro-4-(pyridin-2-ylmethoxy)phenyl)amino)quinazolin-6-yl)acrylamide] | 7.00 to 7.30 | 7.30 to 7.52 | 6.00 to 6.30 | 6.70 to 7.00 | 7.30 to 7.52 | 6.00 to 6.30 | 7.00 to 7.30 | 6.70 to 7.00 |
| C=CC(=O)Nc1cc2c(Nc3ccc(Oc4ccccc4)cc3)ncnc2cc1C#C[C@@H]1[C@H]2CN(C)C[C@@H]12 [compound 106, N-(7-(((1R,5S,6s)-3-methyl-3-azabicyclo[3.1.0]hexan-6-yl)ethynyl)-4-((4-phenoxyphenyl)amino)quinazolin-6-yl)acrylamide] | 7.30 to 7.52 | 7.30 to 7.52 | 6.70 to 7.00 | 6.70 to 7.00 | 7.30 to 7.52 | 6.70 to 7.00 | 7.30 to 7.52 | 6.70 to 7.00 |

Now from value to compound:

| pIC50 (EGFR V3 [1]) | pIC50 (HER2 S310F [2]) | pIC50 (EGFR WT [3]) | pIC50 (HER2 YVMA [4]) | pIC50 (HER2 S310F [5]) | pIC50 (EGFR WT [6]) | pIC50 (EGFR V3 [7]) | pIC50 (HER2 YVMA [8]) | Compound |
| --- | --- | --- | --- | --- | --- | --- | --- | --- |
| 7.30 to 7.52 | 7.52 to 7.70 | 6.00 to 6.30 | 6.70 to 7.00 | 7.52 to 7.70 | 6.00 to 6.30 | 7.30 to 7.52 | 6.70 to 7.00 | C=CC(=O)Nc1cc2c(Nc3ccc(OCc4ccccn4)c(Cl)c3)ncnc2cc1OC[C@H]1COCCN1 [compound 90, N-(4-((3-chloro-4-(pyridin-2-ylmethoxy)phenyl)amino)-7-(morpholin-3-ylmethoxy)quinazolin-6-yl)acrylamide] |
| 7.30 to 7.52 | 7.52 to 7.70 | 6.70 to 7.00 | 6.70 to 7.00 | 7.52 to 7.70 | 6.70 to 7.00 | 7.30 to 7.52 | 6.70 to 7.00 | C=CC(=O)Nc1cc2c(Nc3ccc(OCc4ccccn4)c(Cl)c3)ncnc2cc1OCCN1CCC2C1CCN2C (stereo not drawn) [compound 92, N-(4-((3-chloro-4-(pyridin-2-ylmethoxy)phenyl)amino)-7-(2-(4-methylhexahydropyrrolo[3,2-b]pyrrol-1(2H)-yl)ethoxy)quinazolin-6-yl)acrylamide] |
| 7.30 to 7.52 | 7.30 to 7.52 | 6.30 to 6.52 | 6.30 to 6.52 | 7.30 to 7.52 | 6.30 to 6.52 | 7.30 to 7.52 | 6.30 to 6.52 | C=CC(=O)Nc1cc2c(Nc3ccc(OCc4ccccn4)c(Cl)c3)ncnc2cc1OCC(C)(C)N(C)C [compound 94, N-(4-((3-chloro-4-(pyridin-2-ylmethoxy)phenyl)amino)-7-(2-(dimethylamino)-2-methylpropoxy)quinazolin-6-yl)acrylamide] |
| 7.52 to 7.70 | 8.00 to 8.30 | 6.70 to 7.00 | 7.30 to 7.52 | 8.00 to 8.30 | 6.70 to 7.00 | 7.52 to 7.70 | 7.30 to 7.52 | C=CC(=O)Nc1cc2c(Nc3ccc(OCc4ccccn4)c(Cl)c3)ncnc2cc1OCC[C@H]1CCCN1C [compound 95, N-(4-((3-chloro-4-(pyridin-2-ylmethoxy)phenyl)amino)-7-(2-(1-methylpyrrolidin-2-yl)ethoxy)quinazolin-6-yl)acrylamide] |
| 7.30 to 7.52 | 7.52 to 7.70 | 6.52 to 6.70 | 6.52 to 6.70 | 7.52 to 7.70 | 6.52 to 6.70 | 7.30 to 7.52 | 6.52 to 6.70 | C=CC(=O)Nc1cc2c(Nc3ccc(OCc4ccccn4)c(Cl)c3)ncnc2cc1OCC1(CN(C)C)CC1 [compound 98, N-(4-((3-chloro-4-(pyridin-2-ylmethoxy)phenyl)amino)-7-((1-((dimethylamino)methyl)cyclopropyl)methoxy)quinazolin-6-yl)acrylamide] |
| 7.52 to 7.70 | 7.30 to 7.52 | 6.52 to 6.70 | 6.52 to 6.70 | 7.30 to 7.52 | 6.52 to 6.70 | 7.52 to 7.70 | 6.52 to 6.70 | C=CC(=O)Nc1cc2c(Nc3ccc(OCc4ccccn4)c(Cl)c3)ncnc2cc1O[C@H]1CCCN(C)CC1 [compound 99, N-(4-((3-chloro-4-(pyridin-2-ylmethoxy)phenyl)amino)-7-((1-methylazepan-4-yl)oxy)quinazolin-6-yl)acrylamide] |
| 7.70 to 8.00 | 7.70 to 8.00 | 6.70 to 7.00 | 7.30 to 7.52 | 7.70 to 8.00 | 6.70 to 7.00 | 7.70 to 8.00 | 7.30 to 7.52 | C=CC(=O)Nc1cc2c(Nc3ccc(OCc4ccccn4)c(Cl)c3)ncnc2cc1OC[C@H]1CCN(C)C1 [compound 101, N-(4-((3-chloro-4-(pyridin-2-ylmethoxy)phenyl)amino)-7-((1-methylpyrrolidin-3-yl)methoxy)quinazolin-6-yl)acrylamide] |
